Our source for the inhibition and melting point values is US7132546B2, “Aniline derivatives or salts thereof and cytokine production inhibitors containing the same” (Ishihara Sangyo Kaisha, Ltd., priority 2000, dated 2006).

Data set [1] deals with interleukin 5 (IL-5) production. Description: Cytokine production inhibitory effect: IL-5 production by murine spleen cells treated with anti-mouse CD3 antibody and IL-2 (ELISA). The class given is cell-based, Balb/c mice. The following applies: test compound 100 ppm, anti-CD3 antibody + IL-2, 40 to 48 hours, read-out: IL-5 production inhibitory ratio (%).
The subject of data set [2] is interferon γ (IFN-γ) production. Kind of data set: Cytokine production inhibitory effect: IFN-γ production by murine spleen cells treated with anti-mouse CD3 antibody and IL-2 (ELISA). The class given is cell-based, Balb/c mice. The settings on record: test compound 100 ppm, anti-CD3 antibody + IL-2, 40 to 48 hours, read-out: IFN-γ production inhibitory ratio (%).

Molecule `O=C(Nc1ccc(-c2ccccc2)cc1)c1cc([N+](=O)[O-])ccc1Cl` [compound 83] returned a melting point of 203 to 206 °C. Besides, the inhibition at 100 ppm in data set [1] is 90%. For the same molecule, the inhibition at 100 ppm in data set [2] came out at 76%.

`N#Cc1ccc(Cl)c(C(=O)Nc2ccc(Oc3ccccc3)cc2)c1` [compound 85] came in with a melting point of 143 °C. The inhibition at 100 ppm in data set [1] came to 91%. Also, in data set [2], the inhibition at 100 ppm is 86%.

The molecule `N#Cc1ccc(Cl)c(C(=O)Nc2ccc(Oc3ncc(C(F)(F)F)cc3Cl)cc2)c1` [compound 86] returned a melting point of 209 to 212 °C. In addition, the inhibition at 100 ppm in data set [1] was 87%. The inhibition at 100 ppm in data set [2] amounted to 29%.

On to `N#Cc1ccc(Cl)c(C(=O)Nc2ccc(Sc3ncc(C(F)(F)F)cc3Cl)cc2)c1` [compound 87], for which the melting point lay within 229 to 231 °C. Besides, the inhibition at 100 ppm in data set [1] worked out at 100%. For the same molecule, the inhibition at 100 ppm in data set [2] is 100%.

On to `CS(=O)(=O)c1ccc(Cl)c(C(=O)Nc2ccc(Oc3ncc(C(F)(F)F)cc3Cl)cc2)c1` [compound 88], for which the melting point is 221 °C. In addition, in data set [1], the inhibition at 100 ppm was 72%. Further, in data set [2], the inhibition at 100 ppm came to 17%.

For the molecule `O=C(Nc1ccc(Oc2ccc(C(F)(F)F)cc2Cl)cc1)c1cc([N+](=O)[O-])ccc1Cl` [compound 89], the melting point was 168 °C. Also, the inhibition at 100 ppm in data set [1] worked out at 87%. The inhibition at 100 ppm in data set [2] stood at 99%.

Molecule `O=[N+]([O-])c1ccc(Cl)c(S(=O)(=O)Nc2ccc(Sc3ncc(C(F)(F)F)cc3Cl)cc2)c1` [compound 90] yielded a melting point of 224 to 226 °C. Further, the inhibition at 100 ppm in data set [1] came out at 100%. Also, the inhibition at 100 ppm in data set [2] stood at 100%.

With `Cc1cc(Oc2ncc(C(F)(F)F)cc2Cl)ccc1NC(=O)c1cc([N+](=O)[O-])ccc1Cl` [compound 91], the melting point lay within 219 to 221 °C. The inhibition at 100 ppm in data set [1] amounted to 53%. Moreover, the inhibition at 100 ppm in data set [2] is 1%.

For `O=C(Nc1ccc(CO)cc1)c1cc([N+](=O)[O-])ccc1Cl` [compound 92], the melting point was 201 to 204 °C. Moreover, in data set [1], the inhibition at 100 ppm was determined as 99%. For the same molecule, the inhibition at 100 ppm in data set [2] came to 100%.

`O=C(Nc1ccc(C23CC4CC(CC(C4)C2)C3)cc1)c1cc([N+](=O)[O-])ccc1F` [compound 93] displayed a melting point of 224 to 228 °C. In addition, the inhibition at 100 ppm in data set [1] was 100%. Further, the inhibition at 100 ppm in data set [2] is 100%.

Molecule `O=C(Nc1ccc(C23CC4CC(CC(C4)C2)C3)cc1)c1cc([N+](=O)[O-])ccc1Br` [compound 94] showed a melting point of 273 to 275 °C. Further, the inhibition at 100 ppm in data set [1] turned out to be 85%. Further, the inhibition at 100 ppm in data set [2] came out at 53%.

As to `O=C(Nc1ccc(Oc2ccc(C(F)(F)F)cc2Cl)cc1)c1cc([N+](=O)[O-])ccc1Br` [compound 96], the melting point lay within 167 to 172 °C. Besides, the inhibition at 100 ppm in data set [1] was 100%. In addition, the inhibition at 100 ppm in data set [2] is 100%.

Take `O=C(Nc1ccc(CCOc2ncc(C(F)(F)F)cc2Cl)cc1)c1cc([N+](=O)[O-])ccc1Cl` [compound 97]: the melting point fell in the range of 131 to 134 °C. The inhibition at 100 ppm in data set [1] is 77%. Besides, in data set [2], the inhibition at 100 ppm was determined as 84%.

As to `O=C(Nc1ccc(Oc2ncc(C(F)(F)F)cc2Cl)cc1)c1cc([N+](=O)[O-])ccc1F` [compound 98], the melting point fell in the range of 168 to 170 °C. Also, the inhibition at 100 ppm in data set [1] was determined as 96%. Also, the inhibition at 100 ppm in data set [2] is 99%.

Take `O=C(Nc1ccc(Oc2ncc(C(F)(F)F)cc2Cl)cc1)c1cc([N+](=O)[O-])ccc1Br` [compound 99]: the melting point was in the range of 191 to 195 °C. In data set [1], the inhibition at 100 ppm stood at 100%. In data set [2], the inhibition at 100 ppm amounted to 89%.

In the case of `COC(=O)c1cc(Oc2ncc(C(F)(F)F)cc2Cl)ccc1NC(=O)c1cc([N+](=O)[O-])ccc1Cl` [compound 100], the melting point lay within 154 to 158 °C. The inhibition at 100 ppm in data set [1] is 92%. The inhibition at 100 ppm in data set [2] was 93%.

`O=C(Nc1ccc(Oc2ncc(C(F)(F)F)cc2Cl)cc1C(=O)O)c1cc([N+](=O)[O-])ccc1Cl` [compound 101] registered a melting point of 240 to 245 °C. In addition, in data set [1], the inhibition at 100 ppm amounted to 100%. Moreover, the inhibition at 100 ppm in data set [2] amounted to 100%.

On to `Cc1cc(Oc2ncc(C(F)(F)F)cc2Cl)c(C)cc1NC(=O)c1cc([N+](=O)[O-])ccc1Cl` [compound 105], for which the melting point lay within 296 to 298 °C. In addition, the inhibition at 100 ppm in data set [1] stood at 55%. In addition, in data set [2], the inhibition at 100 ppm came out at 25%.

In turn, `COC(=O)c1cc(NC(=O)c2cc([N+](=O)[O-])ccc2Cl)ccc1Oc1ncc(C(F)(F)F)cc1Cl` [compound 107] came in with a melting point of 226 to 229 °C. For the same molecule, the inhibition at 100 ppm in data set [1] worked out at 99%. The inhibition at 100 ppm in data set [2] was determined as 97%.

Molecule `COc1cc(NC(=O)c2cc([N+](=O)[O-])ccc2Cl)ccc1Oc1ncc(C(F)(F)F)cc1Cl` [compound 109] came in with a melting point of 190 to 193 °C. Further, in data set [1], the inhibition at 100 ppm turned out to be 100%. Moreover, in data set [2], the inhibition at 100 ppm turned out to be 95%.

In the case of `O=C(Nc1ccc(OCC23CC4CC(CC(C4)C2)C3)cc1)c1cc([N+](=O)[O-])ccc1Cl` [compound 110], the melting point is 175 to 180 °C. In addition, in data set [1], the inhibition at 100 ppm was determined as 99%. Further, in data set [2], the inhibition at 100 ppm turned out to be 100%.

`O=C(Nc1ccc(OC2C3CC4CC(C3)CC2C4)cc1)c1cc([N+](=O)[O-])ccc1Cl` (stereo not drawn) [compound 111]: the melting point lay in the range of 178 to 180 °C. Further, the inhibition at 100 ppm in data set [1] worked out at 99%. In addition, the inhibition at 100 ppm in data set [2] is 99%.

`O=C(Nc1cc(Cl)c(Oc2ncc(C(F)(F)F)cc2Cl)c(Cl)c1)c1cc([N+](=O)[O-])ccc1Cl` [compound 112] displayed a melting point of 189 to 191 °C. Besides, the inhibition at 100 ppm in data set [1] is 100%. Further, the inhibition at 100 ppm in data set [2] was found to be 100%.

With `O=C(Nc1ccc(Oc2ncc(C(F)(F)F)cc2Cl)c(Cl)c1)c1cc([N+](=O)[O-])ccc1Cl` [compound 113], the melting point is 222 to 225 °C. Moreover, the inhibition at 100 ppm in data set [1] amounted to 96%. In addition, in data set [2], the inhibition at 100 ppm was found to be 97%.

`NC(=O)c1cc(NC(=O)c2cc([N+](=O)[O-])ccc2Cl)ccc1Oc1ncc(C(F)(F)F)cc1Cl` [compound 116] returned a melting point of 239 to 244 °C. In addition, the inhibition at 100 ppm in data set [1] worked out at 100%. Moreover, in data set [2], the inhibition at 100 ppm came out at 99%.

Take `Cc1cc(NS(=O)(=O)c2cc([N+](=O)[O-])ccc2Cl)ccc1Oc1ncc(C(F)(F)F)cc1Cl` [compound 117]: the melting point fell in the range of 233 to 236 °C. Further, in data set [1], the inhibition at 100 ppm was found to be 100%. Besides, the inhibition at 100 ppm in data set [2] came to 100%.

Turning to `Cc1cc(NC(=O)c2cc(C#N)ccc2Cl)ccc1Oc1ncc(C(F)(F)F)cc1Cl` [compound 118], the melting point was 221 to 223 °C. Besides, the inhibition at 100 ppm in data set [1] was 78%. Also, the inhibition at 100 ppm in data set [2] is 47%.

Regarding `Cc1cc(NC(=O)c2cc([N+](=O)[O-])ccc2F)ccc1Oc1ncc(C(F)(F)F)cc1Cl` [compound 119], the melting point was 179 to 181 °C. Moreover, the inhibition at 100 ppm in data set [1] turned out to be 100%. Moreover, in data set [2], the inhibition at 100 ppm amounted to 99%.

Take `Cc1cc(NC(=O)c2cc([N+](=O)[O-])ccc2Br)ccc1Oc1ncc(C(F)(F)F)cc1Cl` [compound 120]: the melting point lay in the range of 246 to 248 °C. The inhibition at 100 ppm in data set [1] was 84%. Besides, the inhibition at 100 ppm in data set [2] turned out to be 35%.

In turn, `Nc1cc(NC(=O)c2cc([N+](=O)[O-])ccc2Cl)ccc1Oc1ncc(C(F)(F)F)cc1Cl` [compound 121] came in with a melting point of 235 to 237 °C. The inhibition at 100 ppm in data set [1] worked out at 97%. The inhibition at 100 ppm in data set [2] worked out at 100%.

For the molecule `N#Cc1cc(NC(=O)c2cc([N+](=O)[O-])ccc2Cl)ccc1Oc1ncc(C(F)(F)F)cc1Cl` [compound 122], the melting point lay within 194 to 198 °C. Further, the inhibition at 100 ppm in data set [1] was 100%. For the same molecule, in data set [2], the inhibition at 100 ppm worked out at 100%.

Consider `CC(=O)Nc1cc(NC(=O)c2cc([N+](=O)[O-])ccc2Cl)ccc1Oc1ncc(C(F)(F)F)cc1Cl` [compound 125], for which the melting point lay within 203 to 205 °C. Moreover, the inhibition at 100 ppm in data set [1] is 100%. Moreover, the inhibition at 100 ppm in data set [2] stood at 100%.

Turning to `O=C(Nc1ccc(Oc2ncc(C(F)(F)F)cc2Cl)c(O)c1)c1cc([N+](=O)[O-])ccc1Cl` [compound 126], the melting point is 194 to 197 °C. Also, the inhibition at 100 ppm in data set [1] was 100%. For the same molecule, in data set [2], the inhibition at 100 ppm was 100%.

Consider `CN(C)c1cc(NC(=O)c2cc([N+](=O)[O-])ccc2Cl)ccc1Oc1ncc(C(F)(F)F)cc1Cl` [compound 128], for which the melting point lay within 208 to 213 °C. For the same molecule, the inhibition at 100 ppm in data set [1] worked out at 96%. Further, the inhibition at 100 ppm in data set [2] was found to be 93%.

`CN(c1cc(NC(=O)c2cc([N+](=O)[O-])ccc2Cl)ccc1O)c1ncc(C(F)(F)F)cc1Cl` [compound 129]: the melting point fell in the range of 273 to 276 °C. In addition, in data set [1], the inhibition at 100 ppm came to 86%. The inhibition at 100 ppm in data set [2] amounted to 67%.

With `O=C(Nc1ccc(Oc2ncc(C(F)(F)F)cc2Cl)c(N2CCCC2)c1)c1cc([N+](=O)[O-])ccc1Cl` [compound 130], the melting point fell in the range of 235 to 237 °C. Also, in data set [1], the inhibition at 100 ppm was found to be 100%. The inhibition at 100 ppm in data set [2] came to 99%.

As to `O=C(Nc1ccc(Oc2ncc(C(F)(F)F)cc2Cl)c(N2CCCCC2)c1)c1cc([N+](=O)[O-])ccc1Cl` [compound 131], the melting point lay in the range of 194 to 198 °C. In addition, the inhibition at 100 ppm in data set [1] is 100%. Besides, in data set [2], the inhibition at 100 ppm was determined as 100%.

With `O=C(Nc1ccc(Nc2ncc(C(F)(F)F)cc2Cl)cc1)c1cc([N+](=O)[O-])ccc1Cl` [compound 132], the melting point lay in the range of 215 to 218 °C. The inhibition at 100 ppm in data set [1] is 99%. In data set [2], the inhibition at 100 ppm worked out at 100%.

`CN(c1ccc(NC(=O)c2cc([N+](=O)[O-])ccc2Cl)cc1)c1ncc(C(F)(F)F)cc1Cl` [compound 133]: the melting point is 212 to 216 °C. Besides, the inhibition at 100 ppm in data set [1] worked out at 99%. Further, in data set [2], the inhibition at 100 ppm stood at 100%.
